# From ChEMBL document CHEMBL5137097, “A Warhead Substitution Study on the Coronavirus Main Protease Inhibitor Nirmatrelvir” (ACS Med Chem Lett, 2022)
# Tests used:
# [1] = biological target: Replicase polyprotein 1ab (Severe acute respiratory syndrome coronavirus 2, UniProt P0DTD1); test: Inhibition of full length SARS-CoV-2 3CLpro expressed in Escherichia coli BL21 (DE3) cells using (DABCYL)KTSAVLQSGFRKM(Glu)(EDANS) peptide as substrate preincubated for 30 mins followed by substrate addition and measured after 1.5 hrs by FRET assay
# [2] = biological target: Replicase polyprotein 1ab (Human coronavirus 229E, UniProt P0C6X1); test: Inhibition of full length C terminal His-tagged Human coronavirus 229E 3CLpro expressed in Escherichia coli Rosetta (DE3) cells using (DABCYL)KTSAVLQSGFRKM(Glu)(EDANS) peptide as substrate preincubated for 30 mins followed by substrate addition and measured after 1.5 hrs by FRET assay
# Chain of Replicase polyprotein 1ab (Human coronavirus 229E, UniProt P0C6X1) (P0C6X1 2966-3267 limits assumed): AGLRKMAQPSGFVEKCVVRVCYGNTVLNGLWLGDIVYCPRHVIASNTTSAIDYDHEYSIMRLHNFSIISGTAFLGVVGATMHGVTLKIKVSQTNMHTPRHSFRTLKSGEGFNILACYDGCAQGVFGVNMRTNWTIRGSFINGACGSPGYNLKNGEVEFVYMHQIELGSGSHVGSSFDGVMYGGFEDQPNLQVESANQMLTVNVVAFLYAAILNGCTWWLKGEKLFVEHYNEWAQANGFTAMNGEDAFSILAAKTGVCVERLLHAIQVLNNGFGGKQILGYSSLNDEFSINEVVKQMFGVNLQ
# [3] = Antiviral activity against Human coronavirus 229E infected in human MRC5 cells assessed as […] cell viability measured after 4 days by CellTiter-Glo luminescence assay; type: functional, cell-based; details: MRC5, 96 h
SMILES,IC50 [1] [µM],IC50 [2] [µM],EC50 [3] [µM]
CC(C)(C)[C@H](NC(=O)C(F)(F)F)C(=O)N1C[C@H]2[C@@H]([C@H]1C(=O)N[C@H](CO)C[C@@H]1CCNC1=O)C2(C)C,> 100,> 100,
CC(C)(C)[C@H](NC(=O)C(F)(F)F)C(=O)N1C[C@H]2[C@@H]([C@H]1C(=O)N[C@@H](C[C@@H]1CCNC1=O)C(=O)CO)C2(C)C,,0.013,0.193
CC(C)(C)[C@H](NC(=O)C(F)(F)F)C(=O)N1C[C@H]2[C@@H]([C@H]1C(=O)N[C@@H](C[C@@H]1CCNC1=O)C(N)=O)C2(C)C,> 100,> 100,
CC(C)(C)[C@H](NC(=O)C(F)(F)F)C(=O)N1C[C@H]2[C@@H]([C@H]1C(=O)NCCC1CCNC1=O)C2(C)C (some centres not stated),> 100,> 100,
CC(C)(C)[C@H](NC(=O)C(F)(F)F)C(=O)N1C[C@H]2[C@@H]([C@H]1C(=O)N[C@@H](C[C@@H]1CCNC1=O)C(=O)c1nc3ccccc3s1)C2(C)C,,0.239,0.242
CC(C)(C)[C@H](NC(=O)C(F)(F)F)C(=O)N1C[C@H]2[C@@H]([C@H]1C(=O)N[C@@H](C[C@@H]1CCNC1=O)C(=O)COCc1ccccc1)C2(C)C,0.027,0.467,0.513
CC(C)(C)[C@H](NC(=O)C(F)(F)F)C(=O)N1C[C@H]2[C@@H]([C@H]1C(=O)N[C@@H](C[C@@H]1CCNC1=O)C(=O)C(=O)NC1CC1)C2(C)C,0.019,0.07,2.37
COC(=O)[C@H](C[C@@H]1CCNC1=O)NC(=O)[C@@H]1[C@@H]2[C@H](CN1C(=O)[C@@H](NC(=O)C(F)(F)F)C(C)(C)C)C2(C)C,> 100,> 100,
CC(C)(C)[C@H](NC(=O)C(F)(F)F)C(=O)N1C[C@H]2[C@@H]([C@H]1C(=O)N[C@H](C#N)C[C@@H]1CCNC1=O)C2(C)C,,,0.212
CC(C)(C)[C@H](NC(=O)C(F)(F)F)C(=O)N1C[C@H]2[C@@H]([C@H]1C(=O)N[C@H](C=O)C[C@@H]1CCNC1=O)C2(C)C,0.01,0.016,0.77
